Patent publication US20230012172A1, “COMPOSITIONS AND METHODS FOR TREATMENT OF PLATINUM-BASED CHEMOTHERAPEUTIC RESISTANT TUMORS” (The George Washington University, priority 2020, published 2023)
Numbering of substitutions follows the chain as printed.

Assays:
SENP1-C603A = target: T1, SENP1-C603A (Homo sapiens, UniProt Q9P0U3, C603A); assay: In vitro thermal shift assay with mutant SENP1-C603A; type: binding; conditions: purified mutant SENP1-C603A
T1 construct: made in house; host or cells: E. coli implied (pGEX-4T1 vector)
T1 sequence (Q9P0U3 1-644 C603A): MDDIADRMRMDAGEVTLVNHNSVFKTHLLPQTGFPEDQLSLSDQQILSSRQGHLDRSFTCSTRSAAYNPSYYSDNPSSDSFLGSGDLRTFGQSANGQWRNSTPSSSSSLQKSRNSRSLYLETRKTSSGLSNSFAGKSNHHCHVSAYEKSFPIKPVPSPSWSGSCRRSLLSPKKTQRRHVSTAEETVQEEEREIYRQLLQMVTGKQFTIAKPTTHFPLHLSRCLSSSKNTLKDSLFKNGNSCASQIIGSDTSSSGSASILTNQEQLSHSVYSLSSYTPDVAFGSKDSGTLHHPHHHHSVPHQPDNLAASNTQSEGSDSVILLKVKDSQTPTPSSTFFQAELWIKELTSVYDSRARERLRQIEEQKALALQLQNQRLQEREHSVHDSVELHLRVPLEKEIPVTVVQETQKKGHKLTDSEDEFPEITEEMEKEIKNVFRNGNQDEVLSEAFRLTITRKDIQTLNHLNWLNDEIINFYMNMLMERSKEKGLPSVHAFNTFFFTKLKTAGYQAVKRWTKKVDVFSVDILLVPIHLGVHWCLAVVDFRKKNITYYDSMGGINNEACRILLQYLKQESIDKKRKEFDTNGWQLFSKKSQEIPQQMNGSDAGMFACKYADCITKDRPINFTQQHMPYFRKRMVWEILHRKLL

SENP1 = target: T2, SENP1 (Homo sapiens, UniProt Q9P0U3); assay: SENP1 inhibition in IGROV1 cells (SUMOylated JAK2, Western blot); type: cell-based; design: endogenous in cells; host or cells: IGROV1; conditions: incubated 48 hours, read-out: inhibited deSUMOylation of JAK2 with IC50
T2 sequence (Q9P0U3 1-644): T1 sequence (Q9P0U3 1-644 C603A) with A603C
Experimental: FIGS. 11A-11L depict images illustrating identification of a novel potent SENP1 inhibitor, UA. FIGS. 11A and 11B show Mc (FIG. 11A) and UA (FIG. 11B) inhibited SENP1 activity in vivo. IGROV1 cells were incubated with Mc or UA for 48 hours and harvested for Western blot for indicated proteins. […]. Intensity of SUMOylated JAK2 in B was measured by Quantity One software. FIGS. 11D and 11E show Mc (FIG. 11D) and UA (FIG. 11E) inhibited SENP1 activity in vitro. Recombinant His-JAK2 was SUMOylated as in FIG. 2F, followed by incubation with recombinant GST-SENP1 together with Mc or UA for 3 hours (h). […]. Intensity of SUMOylated JAK2 was measured by Quantity One software. […] SENP1 stability was analyzed using Western blot against SENP1 antibody in IGROV1 cells. […] SENP1 stability was analyzed by using Western blot against SENP1 antibody. […] Green: UA; Salmon: interface. Right panel, active residues of SENP1 for SENP1:UA complex. Green: UA; Salmon: active residues. […] Stability of SENP1-C603A was analyzed by using Western blot against SENP1 antibody
To determine the functional consequence of SENP1-JAK2 interaction, it was examined whether inhibition of SENP1 affected SUMOylation of JAK2. To this end, JAK2 was immunoprecipitated and the SUMOylation level of JAK2 was evaluated using an antibody against SUMO2/3 in SENP1 depleted cells.

| SMILES | thermal stabilization of SENP1-C603A proteins (SENP1-C603A) | IC50 (SENP1) |
| --- | --- | --- |
| C[C@H]1[C@H](C)CC[C@]2(C(=O)O)CC[C@]3(C)C(=CC[C@@H]4[C@@]5(C)CC[C@H](O)C(C)(C)[C@@H]5CC[C@]43C)[C@H]12 [UA, ursolic acid] | no longer stabilized | 0.24 µM |
| CC1(C)CC[C@]2(C(=O)O)CC[C@]3(C)C(=CC[C@@H]4[C@@]5(C)CC[C@H](O[C@@H]6O[C@H](C(=O)O)[C@@H](O)[C@H](O[C@@H]7OC[C@@H](O)[C@H](O)[C@H]7O)[C@H]6O)C(C)(C)[C@@H]5CC[C@]43C)[C@@H]2C1 [Mc, Momordin Ic] | no longer stabilized | 31.8 µM |
